US9315458B2, “Nitrogen-containing heterocyclic compound” (Takeda Pharmaceutical Company Limited, priority 2014, dated 2016)

Molecular target: T1, human M1 receptor (hCHRM1) (Homo sapiens, UniProt P11229)
T1 construct: expressed in transfected cells
T1 sequence (P11229 1-460): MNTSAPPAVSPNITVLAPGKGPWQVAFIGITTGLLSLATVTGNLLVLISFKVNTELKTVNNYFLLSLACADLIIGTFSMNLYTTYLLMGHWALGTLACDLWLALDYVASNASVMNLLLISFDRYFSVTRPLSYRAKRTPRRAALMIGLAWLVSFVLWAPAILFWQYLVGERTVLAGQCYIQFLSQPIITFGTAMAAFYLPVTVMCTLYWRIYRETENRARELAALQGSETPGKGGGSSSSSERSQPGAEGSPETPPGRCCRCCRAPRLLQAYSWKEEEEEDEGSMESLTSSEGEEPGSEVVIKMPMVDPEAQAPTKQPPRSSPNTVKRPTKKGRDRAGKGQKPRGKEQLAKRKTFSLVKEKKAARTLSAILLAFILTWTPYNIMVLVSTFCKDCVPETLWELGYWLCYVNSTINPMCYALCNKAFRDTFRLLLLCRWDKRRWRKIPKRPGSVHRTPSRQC
Assay: Measurement of M1 receptor positive allosteric modulator (M1PAM) activity, calcium fluorescence (FLIPRtetra) with acetylcholine at EC20
Type: cell-based
Conditions: for activity (%) at 10 μM: 10 μM test compound, 100% = acetylcholine 1 μM, 0% = DMSO, acetylcholine at EC20; for EC50: inflection point of concentration-dependent curve, CHO-K1 cells expressing hCHRM1, acetylcholine at EC20 (final 0.6-0.8 nM), read-out: IP value
Procedure: The activity of a test compound in the presence of acetylcholine at EC20 concentration (final concentration 0.6-0.8 nM), which affords an action corresponding to about 20% of the maximum activity, was measured as PAM activity. The method is as follows. CHO-K1 cells stably expressing a human M1 receptor (hCHRM1) were plated on a 384-well black clear bottom plate (BD Falcon) at 5,000 cells/well, and cultured in an incubator at 37° C., 5% CO2 for 1 day. The medium in the cell plate was removed, and assay buffer A (Recording medium (DOJINDO LABORATORIES), 0.1% BSA (Wako Pure Chemical Industries, Ltd.), 2.5 μg/mL Fluo-4 AM (DOJINDO LABORATORIES), 0.08% Pluronic F127 (DOJINDO LABORATORIES), 1.25 mM probenecid (DOJINDO LABORATORIES)) containing a calcium indicator was added at 30 μL/well. The cells were left standing in the incubator at 37° C., 5% CO2 for 30 min, and further left standing at room temperature for 30 min. A test compound prepared by diluting with assay buffer B (HBSS (Invitrogen), 20 mM HEPES (Invitrogen), 0.1% BSA) containing 2.4-3.2 nM acetylcholine was added at 10 μL/well, and the fluorescence was measured by FLIPRtetra (Molecular Devices) for 1 min every 1 second. With the definition that the amount of change in the fluorescence on addition of acetylcholine (final concentration 1 μM) is 100% and that on addition of DMSO instead of a test compound is 0%, the activity (%) of the test compound was calculated, and the inflection point in the concentration-dependent curve of the test compound was calculated as IP values.

activity (%) at 10 μM [%]	EC50 [nM]	Structure (SMILES)
94	5.7	Cc1c(Cc2ccc(-c3cnn(C)c3)cc2)cc2c(c1C)CN([C@H]1CCCC[C@@H]1O)C2=O (racemic) [Example 89, rac-2-(trans-2-hydroxycyclohexyl)-4,5-dimethyl-6-(4-(1-methyl-1H-pyrazol-4-yl)benzyl)isoindolin-1-one]
95	38	Cc1cc(-c2ccc(Cc3cc4c(cc3C)CN([C@H]3CCC[C@@H]3O)C4=O)cc2)cnn1 (racemic) [Example 91, rac-2-(trans-2-hydroxycyclopentyl)-5-methyl-6-(4-(6-methylpyridazin-4-yl)benzyl)isoindolin-1-one]
91	60	COc1c(Cc2ccc(-n3cccn3)cc2)cc2c(c1Cl)CN([C@H]1CCC[C@@H]1O)C2=O (racemic) [Example 92, rac-4-chloro-2-(trans-2-hydroxycyclopentyl)-5-methoxy-6-(4-(1H-pyrazol-1-yl)benzyl)isoindolin-1-one]
94	5.6	Cc1c(Cc2ccc(-n3cccn3)cc2)cc2c(c1Cl)CN([C@H]1CCCC[C@@H]1O)C2=O (racemic) [Example 93, rac-4-chloro-2-(trans-2-hydroxycyclohexyl)-5-methyl-6-(4-(1H-pyrazol-1-yl)benzyl)isoindolin-1-one]
92	9.5	Cc1nn(C)cc1-c1ccc(Cc2cc3c(c(C)c2C)CN([C@H]2CCCC[C@@H]2O)C3=O)c(F)c1 (racemic) [Example 94, rac-6-(4-(1,3-dimethyl-1H-pyrazol-4-yl)-2-fluorobenzyl)-2-(trans-2-hydroxycyclohexyl)-4,5-dimethylisoindolin-1-one]
92	26	Cc1nn(C)cc1-c1ccc(Cc2cc3c(c(C)c2C)CN([C@H]2CCC[C@@H]2O)C3=O)c(F)c1 (racemic) [Example 95, rac-6-(4-(1,3-dimethyl-1H-pyrazol-4-yl)-2-fluorobenzyl)-2-(trans-2-hydroxycyclopentyl)-4,5-dimethylisoindolin-1-one]
96	5.3	COc1c(Cc2ccc(-n3cccn3)cc2)cc2c(c1F)CN([C@H]1CCCC[C@@H]1O)C2=O (racemic) [Example 97, rac-4-fluoro-2-(trans-2-hydroxycyclohexyl)-5-methoxy-6-(4-(1H-pyrazol-1-yl)benzyl)isoindolin-1-one]
103	16	Cc1cc(-c2ccc(Cc3cc4c(cc3C)CN([C@H]3CCCC[C@@H]3O)C4=O)cc2)ccn1 (racemic) [Example 99, rac-2-(trans-2-hydroxycyclohexyl)-5-methyl-6-(4-(2-methylpyridin-4-yl)benzyl)isoindolin-1-one]
101	94	Cc1cc(-c2ccc(Cc3cc4c(cc3C)CN([C@H]3CCC[C@@H]3O)C4=O)cc2)ccn1 (racemic) [Example 100, rac-2-(trans-2-hydroxycyclopentyl)-5-methyl-6-(4-(2-methylpyridin-4-yl)benzyl)isoindolin-1-one]
91	13	Cc1c(Cc2ccc(-n3cccn3)cc2)cc2c(c1Cl)CN([C@H]1CCC[C@@H]1O)C2=O (racemic) [Example 102, rac-4-chloro-2-(trans-2-hydroxycyclopentyl)-5-methyl-6-(4-(1H-pyrazol-1-yl)benzyl)isoindolin-1-one]
92	11	CCc1cc2c(cc1Cc1ccc(-c3cn(C)nn3)cc1)C(=O)N([C@H]1CCC[C@@H]1O)C2 (racemic) [Example 106, rac-5-ethyl-2-(trans-2-hydroxycyclopentyl)-6-(4-(1-methyl-1H-1,2,3-triazol-4-yl)benzyl)isoindolin-1-one]
93	30	Cc1c(Cc2ccc(C#N)cc2F)cc2c(c1C)CN([C@H]1COCC[C@@H]1O)C2=O (racemic) [Example 112, rac-3-fluoro-4-((2-(trans-4-hydroxytetrahydro-2H-pyran-3-yl)-6,7-dimethyl-3-oxo-2,3-dihydro-1H-isoindol-5-yl)methyl)benzonitrile]
82	1.5	Cc1c(Cc2ccc(C(N)=O)cc2F)cc2c(c1C)CN([C@H]1COCC[C@@H]1O)C2=O (racemic) [Example 113, rac-3-fluoro-4-((2-(trans-4-hydroxytetrahydro-2H-pyran-3-yl)-6,7-dimethyl-3-oxo-2,3-dihydro-1H-isoindol-5-yl)methyl)benzamide]
103	36	COc1ccc(Cc2cc3c(c(C)c2C)CN([C@H]2COCC[C@@H]2O)C3=O)cc1 (racemic) [Example 165, rac-2-(trans-4-hydroxytetrahydro-2H-pyran-3-yl)-6-(4-methoxybenzyl)-4,5-dimethyl-2,3-dihydro-1H-isoindol-1-one]
98	19	Cc1cc2c(cc1Cc1ccc(-n3cccn3)cc1)C(=O)N([C@H]1CCC[C@@H]1O)C2 [Example 4, 2-((1S,2S)-2-hydroxycyclopentyl)-5-methyl-6-(4-(1H-pyrazol-1-yl)benzyl)isoindolin-1-one]
107	180	Cc1cc2c(cc1Cc1ccc(-n3cccn3)cc1)C(=O)N(c1c(F)cccc1C#N)C2 [Example 7, 3-fluoro-2-(5-methyl-1-oxo-6-(4-(1H-pyrazol-1-yl)benzyl)-1,3-dihydro-2H-isoindol-2-yl)benzonitrile]
90	290	Cc1cc2c(cc1Cc1ccc(-n3cccn3)cc1)C(=O)N(C1CCOCC1)C2 [Example 8, 5-methyl-6-(4-(1H-pyrazol-1-yl)benzyl)-2-(tetrahydro-2H-pyran-4-yl)isoindolin-1-one]
104	7.9	Cc1c(Cc2ccc(-c3ccn(C)n3)cc2)cc2c(c1C)CN([C@H]1CCC[C@@H]1O)C2=O [Example 13, 2-((1S,2S)-2-hydroxycyclopentyl)-4,5-dimethyl-6-(4-(1-methyl-1H-pyrazol-3-yl)benzyl)isoindolin-1-one]
94	1.2	Cc1c(Cc2ccc(-c3cn(C)nn3)cc2)cc2c(c1C)CN(C[C@@H]1CCCO1)C2=O [Example 14, 4,5-dimethyl-6-(4-(1-methyl-1H-1,2,3-triazol-4-yl)benzyl)-2-((2S)-tetrahydrofuran-2-ylmethyl)isoindolin-1-one]
103	11	Cc1c(Cc2ccc(-n3cccn3)cc2)cc2c(c1C)CN(CC(C)(C)O)C2=O [Example 15, 2-(2-hydroxy-2-methylpropyl)-4,5-dimethyl-6-(4-(1H-pyrazol-1-yl)benzyl)isoindolin-1-one]
94	12	Cc1c(Cc2ccc(-n3cccn3)cc2F)cc2c(c1C)CN([C@H]1CCC[C@@H]1O)C2=O [Example 16, 6-(2-fluoro-4-(1H-pyrazol-1-yl)benzyl)-2-((1S,2S)-2-hydroxycyclopentyl)-4,5-dimethylisoindolin-1-one]
90	18	Cc1c(Cc2ccc(Cl)cc2)cc2c(c1C)CN([C@H]1COCC[C@@H]1O)C2=O [Example 17, 1,5-anhydro-2-(6-(4-chlorobenzyl)-4,5-dimethyl-1-oxo-1,3-dihydro-2H-isoindol-2-yl)-2,4-dideoxy-L-threo-pentitol]
